From paper PMC6882468 (Journal of Enzyme Inhibition and Medicinal Chemistry, 2019)

Assays:
[1] = test system: DNFB-induced mouse model of allergic contact dermatitis; assay: DNFB-induced mouse model of allergic contact dermatitis (ear swelling); type: in vivo, Male ICR mice; conditions: for Swelling degree / Inhibition (%) of ear swelling: mice; for Swelling degree: Mean ± SD, n = 6; for Inhibition (%) of ear swelling: vs model group
Method: Male ICR mice (20 ± 2 g) were obtained from the Experimental Animal Centre of Anhui Medical University (Hefei, China). The mice reared in a pathogen-free setting (23 ± 2 °C, 55 ± 5% humidity) with free access to water and pelleted food throughout the experimental cycle. All experimental procedures performed in accordance with guide for the Care and Use of Laboratory Animals (National Research Council, 1996) and were approved by the Experimental Animal Ethics Committee of Anhui University of Chinese Medicine (Hefei, China). After 7 days acclimatisation, the mice were randomly divided into control group, ACD model group, dexamethasone positive control group and 20 compound groups, six in each group. The control group and the model group were given the same dose of the vehicle, the positive control group was given dexamethasone 0.5 mg/kg, and the test compound groups were given compound 5 mg/kg, all of which were given by intragastric administration and were administered once a day for 6 days. Except for the control group, the 50 µL of 1% DNFB (in acetone/olive oil 4:1) was administered to the stripped epidermis, and repeated the next day. After 6 days of drug treatment, 10 µL of 1% DNFB acetone olive oil solution was applied on both sides of the right ear to stimulate inflammation, and equivalent acetone olive oil solution was applied on the left ear for comparison. […] Calculation was carried out according to the following equations. Swelling degree (mg) = MR – ML Inhibitory rate of ear swelling (%)=((MR – ML) model – (MR – ML) treated)/(MR – ML) model ×100% MR=Average weight of the right ear slices;ML= Average weight of the left ear slices […] Dexamethasone (DEX) at a p.o. dose of 0.5 mg/kg was employed as the positive control. After the mice were sacrificed, the swelling degree and inhibition rate were calculated by weighing the same part of both ears.

[2] = test system: NF-κB activation in RAW264.7 cells; assay: Western blot of LPS-induced NF-κB activation; type: cell-based, Murine; conditions: RAW264.7, 2-h pre-treatment before LPS stimulation
Method: The cell in 96-well plates were treated as described above and then stimulated with LPS (200 ng/mL) for 24 h. The cells were harvested and lysed in an extraction lysis buffer (Beyotime Biotechnology, Shanghai, China) containing protease inhibitors. The protein concentration was determined using a BCA protein assay kit (Thermo Scientific, 23227). The whole cell lysates were separated by 10% sodium dodecyl sulphate-polyacrylamide gel electrophoresis and transferred to a nitrocellulose membrane. Each membrane was incubated with Tris-buffered saline (pH 7.6, containing 0.05% Tween-20 and 5% non-fat milk). The nitrocellulose membrane was incubated with the primary antibody against p-JNK1/2, JNK1/2, p-p38, p38, p-ERK1/2, ERK1/2, IκBa, NF-κB p65, COX-2, iNOS or β-Actin (Abcam, Cambridge, UK). Immunoreactive bands were detected by incubating with horseradish peroxidase-conjugated secondary antibodies, and visualised using enhanced chemiluminescence reagents (Bio-Rad, Hercules, CA).
Figure 5. Compound 6n inhibited LPS-induced NF-κB activation in RAW264.7 cells. […] The levels of NF-κB p65, IκB, and their phosphorylated forms were analysed using western blot.

[3] = 5 mg/kg intragastric once a day for 6 days, ear slices weighed 24 h after DNFB challenge
[4] = 5 mg/kg intragastric once a day for 6 days
[5] = positive control 0.5 mg/kg intragastric once a day for 6 days

SMILES | Swelling degree [1, 3] | Inhibition (%) of ear swelling [1, 4] | also measured
CC(=O)c1ccccc1C(=O)N1CCN(Cc2ccc(C#N)cc2)CC1 [Compound 6c, 4-((4–(2-Acetylbenzoyl)piperazin-1-yl)methyl)benzonitrile] | 11.3 ± 4.0 mg | 31.1% | –
CC(=O)c1ccccc1C(=O)N1CCN(Cc2cccc(Cl)c2)CC1 [Compound 6i, 1–(2-(4–(3-Chlorobenzyl)piperazine-1-carbonyl)phenyl)ethan-1-one] | 12.0 ± 3.0 mg | 26.8% | –
CC(=O)c1ccccc1C(=O)N1CCN(Cc2ccc3c(c2)OCO3)CC1 [Compound 6p, 1–(2-(4-(Benzo[d][1,3]dioxol-5-ylmethyl)piperazine-1-carbonyl)phenyl)ethan-1-one] | 11.0 ± 3.2 mg | 32.9% | in vivo inhibitory activity, in words ([1]; p.o. 5 mg/kg, p < 0.01): significant inhibitory activity
CC(=O)c1ccccc1C(=O)N1CCN(Cc2ccc3c(c2)OCCO3)CC1 [Compound 6q, 1–(2-(4-((2,3-Dihydrobenzo[b][1,4]dioxin-6-yl)methyl)piperazine-1-carbonyl)phenyl)ethan-1-one] | 13.3 ± 2.6 mg | 18.9% | –
COc1cccc(CN2CCN(C(=O)c3ccccc3C(C)=O)CC2)c1 [Compound 6o, 1–(2-(4–(3-Methoxybenzyl)piperazine-1-carbonyl)phenyl)ethan-1-one] | 13.0 ± 4.4 mg | 20.7% | –
COc1ccc(CN2CCN(C(=O)c3ccccc3C(C)=O)CC2)cc1 [Compound 6b, 1–(2-(4–(4-Methoxybenzyl)piperazine-1-carbonyl)phenyl)ethan-1-one] | 12.0 ± 3.4 mg | 26.8% | –
CC(=O)c1ccccc1C(=O)N1CCN(Cc2ccc(C(F)(F)F)cc2)CC1 [Compound 6d, 1–(2-(4–(4-(Trifluoromethyl)benzyl)piperazine-1-carbonyl)phenyl)ethan-1-one] | 12.5 ± 3.4 mg | 23.8% | –
CC(=O)c1ccccc1C(=O)N1CCN(Cc2ccccc2Cl)CC1 [Compound 6h, 1–(2-(4–(2-Chlorobenzyl)piperazine-1-carbonyl)phenyl)ethan-1-one] | 12.8 ± 4.1 mg | 21.9% | –
CC(=O)c1ccccc1C(=O)N1CCN(Cc2nc(C)c(C)nc2C)CC1 [Compound 6r, 1–(2-(4-((3,5,6-Trimethylpyrazin-2-yl)methyl)piperazine-1-carbonyl)phenyl)ethan-1-one] | 10.8 ± 3.5 mg | 34.1% | –
CC(=O)c1ccccc1C(=O)N1CCN(Cc2ccc(Cl)cc2)CC1 [Compound 6a, 1–(2-(4–(4-Chlorobenzyl)piperazine-1-carbonyl)phenyl)ethan-1-one] | 11.9 ± 3.7 mg | 27.4% | –
COc1ccc(CN2CCN(C(=O)c3ccccc3C(C)=O)CC2)c(OC)c1 [Compound 6m, 1–(2-(4–(2,4-Dimethoxybenzyl)piperazine-1-carbonyl)phenyl)ethan-1-one] | 11.6 ± 2.4 mg | 29.3% | –
CC(=O)c1ccccc1C(=O)N1CCN(Cc2ccccc2)CC1 [Compound 6k, 1–(2-(4-Benzylpiperazine-1-carbonyl)phenyl)ethan-1-one] | 13.0 ± 3.5 mg | 20.7% | –
CC(=O)c1ccccc1C(=O)N1CCN(Cc2ccncc2)CC1 [Compound 6s, 1–(2-(4-(Pyridin-4-ylmethyl)piperazine-1-carbonyl)phenyl)ethan-1-one] | 12.9 ± 3.4 mg | 21.3% | –
CC(=O)c1ccccc1C(=O)N1CCN(Cc2ccc(Cl)cc2Cl)CC1 [Compound 6g, 1–(2-(4–(2,4-Dichlorobenzyl)piperazine-1-carbonyl)phenyl)ethan-1-one] | 12.9 ± 2.6 mg | 21.3% | –
CC(=O)c1ccccc1C(=O)N1CCN(Cc2ccc(C)cc2)CC1 [Compound 6l, 1–(2-(4–(4-Methylbenzyl)piperazine-1-carbonyl)phenyl)ethan-1-one] | 11.4 ± 3.2 mg | 30.5% | –
C[C@@H]1C[C@H]2[C@@H]3CCC4=CC(=O)C=C[C@]4(C)[C@@]3(F)[C@@H](O)C[C@]2(C)[C@@]1(O)C(=O)CO [DEX, Dexamethasone, reference compound] | – | – | Inhibition (%) of ear swelling [1, 5]: 51.8%; Swelling degree [1, 5]: 7.9 ± 3.0 mg
Cc1ccc(S(=O)(=O)/C=C/C#N)cc1 [Bay 11e7082, reference compound] | – | – | LPS-induced IκB phosphorylation [2]: markedly decreased; accumulation of NF-κB p65 subunit in the nucleus [2]: lowered; cytosolic IκB [2]: increased
CC(=O)c1ccccc1C(=O)N1CCN(Cc2ccc([N+](=O)[O-])cc2)CC1 [Compound 6e, 1–(2-(4–(4-Nitrobenzyl)piperazine-1-carbonyl)phenyl)ethan-1-one] | 13.0 ± 3.3 mg | 20.7% | –
